This passage reports T/C results from PubChem BioAssay AID330 (DTP/NCI, 2004).

“And” between values parts separate entries of the source, which are not always exact repeats. Equal values may be shown once. Toxic doses and inconclusive results are not listed. Square brackets hold non-standard residues; d marks the D form. Peptide text beside a SMILES is read from it. * marks the point of attachment. ξ: configuration not given here. ξF = NC(Cc1ccccc1)C(=O)O; Cbz = O=C(OCc1ccccc1)*

For the assay, the system named is P388 leukemia ip, CD2F1 mice, survival T/C. Briefly: NCI In Vivo Anticancer Drug Screen. Data for tumor model P388 Leukemia (intraperitoneal) in CD2F1 (CDF1) mice. The following applies: endpoint: median survival time, higher = longer survival. In short, it runs like this: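 Mice carrying the transplanted tumor received test compound or vehicle. Survival was recorded in each group, and the value is the treated-group measurement divided by that of the vehicle-treated control group.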

The mark [1] stands for this setting: dose: 60.0 mg/kg/injection, schedule: Q01DX005 (ip), vehicle: saline with Tween-80.
Where [2] appears, read: dose: 120.0 mg/kg/injection, schedule: Q01DX005 (ip), vehicle: saline with Tween-80.
[3] abbreviates: dose: 240.0 mg/kg/injection, schedule: Q01DX005 (ip), vehicle: saline with Tween-80.
[4] abbreviates: dose: 30.0 mg/kg/injection, schedule: Q01DX005 (ip), vehicle: Klucel (hydroxypropylcellulose) (HPC).
Setting [5] is: dose: 60.0 mg/kg/injection, schedule: Q01DX005 (ip), vehicle: Klucel (hydroxypropylcellulose) (HPC).
[6] abbreviates: dose: 120.0 mg/kg/injection, schedule: Q01DX005 (ip), vehicle: Klucel (hydroxypropylcellulose) (HPC).
Setting [7] is: dose: 240.0 mg/kg/injection, schedule: Q01DX005 (ip), vehicle: Klucel (hydroxypropylcellulose) (HPC).
The mark [8] stands for this setting: dose: 50.0 mg/kg/injection, schedule: Q01DX005 (ip), vehicle: saline with Tween-80.
Setting [9] is: dose: 100.0 mg/kg/injection, schedule: Q01DX005 (ip), vehicle: saline with Tween-80.
Setting [10] is: dose: 200.0 mg/kg/injection, schedule: Q01DX005 (ip), vehicle: saline with Tween-80.
Where [11] appears, read: dose: 25.0 mg/kg/injection, schedule: Q04DX003 (ip), vehicle: saline with Tween-80.
Setting [12] is: dose: 50.0 mg/kg/injection, schedule: Q04DX003 (ip), vehicle: saline with Tween-80.
The mark [13] stands for this setting: dose: 100.0 mg/kg/injection, schedule: Q04DX003 (ip), vehicle: saline with Tween-80.

Take `O=C1OC2C3COC(=O)c4cc(O)c(O)c(O)c4-c4c(cc(O)c(O)c4O)C(=O)OC2C(OC(=O)c2cc(O)c(O)c4c2[C@@H]2C1=CC(=O)[C@](O)(O4)C2(O)O)C(OC(=O)c1cc(O)c(O)c(O)c1)O3` (stereo partly drawn): the T/C was 106 % of control (dose: 6.25 mg/kg/injection, schedule: Q01DX005 (ip), vehicle: DMSO); 106 % of control (dose: 12.5 mg/kg/injection, schedule: Q01DX005 (ip), vehicle: DMSO); 115 % of control (dose: 25.0 mg/kg/injection, schedule: Q01DX005 (ip), vehicle: DMSO).

In the case of `CCOCCOCCOC(C)Oc1ccccc1OC` (stereo not drawn), the T/C was 100 % of control under setting [1], 104 % of control under setting [2] and 106 % of control under setting [3].

Consider `Cc1ccc(C)n1-c1ccsc1C(=O)NNC(=O)CCl`, for which the T/C (dose: 7.5 mg/kg/injection, schedule: Q01DX005 (ip), vehicle: Klucel (hydroxypropylcellulose) (HPC)) was 101 % of control; the T/C (dose: 15.0 mg/kg/injection, schedule: Q01DX005 (ip), vehicle: Klucel (hydroxypropylcellulose) (HPC)) is 99 % of control; the T/C under setting [4] was 100 % of control.

As for `COC(=O)CCCC#C/C=C/CCCC/C=C(Br)\C=C/Br`, the T/C is 101 % of control (dose: 62.5 mg/kg/injection, schedule: Q01DX009 (ip), vehicle: olive oil, sesame oil, peanut oil); 96 % of control (dose: 125.0 mg/kg/injection, schedule: Q01DX009 (ip), vehicle: olive oil, sesame oil, peanut oil); 98 % of control (dose: 250.0 mg/kg/injection, schedule: Q01DX009 (ip), vehicle: olive oil, sesame oil, peanut oil).

Turning to `CNC(=O)OCc1c(COC(=O)NC)c(-c2ccc(Br)cc2)n(C)c1C`, the T/C (dose: 20.0 mg/kg/injection, schedule: Q01DX009 (ip), vehicle: distilled water + Tween-80) was 155 % of control.

Take `CC1SC2(C(=O)Nc3ccccc32)N(c2ccc(O)cc2)C1=O` (stereo not drawn): the T/C is, setting by setting: under setting [5], 91 % of control; under setting [6], 100 % of control; under setting [7], 94 % of control.

`CC(=O)OC1OC(/C=N\N(C)C)C(OCc2ccccc2)C(OCc2ccccc2)C1OC(C)=O` (stereo not drawn): the T/C runs as follows: (dose: 3.12 mg/kg/injection, schedule: Q01DX005 (ip), vehicle: Klucel (hydroxypropylcellulose) (HPC)) 95 % of control; (dose: 6.25 mg/kg/injection, schedule: Q01DX005 (ip), vehicle: Klucel (hydroxypropylcellulose) (HPC)) 97 % of control; (dose: 6.25 mg/kg/injection, schedule: Q01DX009 (ip), vehicle: Klucel (hydroxypropylcellulose) (HPC)) 104 % of control; (dose: 12.5 mg/kg/injection, schedule: Q01DX005 (ip), vehicle: Klucel (hydroxypropylcellulose) (HPC)) 94 % of control; (dose: 12.5 mg/kg/injection, schedule: Q01DX009 (ip), vehicle: Klucel (hydroxypropylcellulose) (HPC)) 92 % of control; (dose: 25.0 mg/kg/injection, schedule: Q01DX009 (ip), vehicle: Klucel (hydroxypropylcellulose) (HPC)) 92 % of control. The T/C (dose: 25.0 mg/kg/injection, schedule: Q01DX009 (ip), vehicle: other) is 92 % of control; the T/C (dose: 50.0 mg/kg/injection, schedule: Q01DX009 (ip), vehicle: other) is 88 % of control; the T/C (dose: 100.0 mg/kg/injection, schedule: Q01DX009 (ip), vehicle: other) is 94 % of control; the T/C (dose: 200.0 mg/kg/injection, schedule: Q01DX009 (ip), vehicle: other) is 89 % of control.

In the case of `C/C(N=NC(=S)N1CCCC1)=C1\C=CC=CN1O`, the T/C runs as follows: under setting [8], 106 % of control; under setting [9], 103 % of control; under setting [10], 112 % of control.

`ClC(Cl)Cl`: the T/C is, setting by setting: (dose: 0.25 % in 0.5 ml injection vol, schedule: Q01DX009 (ip), vehicle: water) 100 % of control; (dose: 0.5 % in 0.5 ml injection vol, schedule: Q01DX009 (ip), vehicle: water) 96 % of control; (dose: 1.0 % in 0.5 ml injection vol, schedule: Q01DX009 (ip), vehicle: water) 100 % of control.

Take `N=c1ccc(=Nc2ccc(N)c3c(O)c4ccccc4c(O)c23)c2c(=O)c3ccccc3c(=O)c1=2`: the T/C reads like this: under setting [8], 103 % of control; under setting [9], 94 % of control; under setting [10], 92 % of control.

On to `O=C(O)CNC(=O)CNC(=O)C(Cc1ccccc1)NC(=O)OCc1ccccc1` (stereo not drawn) (Cbz-[ξF]-Gly-Gly-OH), for which the T/C was 100 % of control under setting [8], 99 % of control under setting [9] and 91 % of control under setting [10].

Turning to `CN(N=O)C(=O)Nc1c[nH]c(=O)[nH]c1=O`, the T/C was 186 % of control (dose: 25.0 mg/kg/injection, schedule: Q01DX009 (ip), vehicle: saline sonified); 190 % of control under setting [11]; 200 % of control (dose: 50.0 mg/kg/injection, schedule: Q01DX009 (ip), vehicle: saline sonified); 195 % of control under setting [12]; 163 % of control (dose: 66.0 mg/kg/injection, schedule: Q04DX003 (ip), vehicle: saline with Tween-80); 186 % of control and 190 % of control under setting [13]. For the setting “dose: 150.0 mg/kg/injection, schedule: Q04DX003 (ip), vehicle: saline with Tween-80”, the T/C is 90 % of control.

On to `C1CCN(CN2CCCCC2)CC1`, for which the T/C was 104 % of control (dose: 50.0 mg/kg/injection, schedule: Q01DX009 (ip), vehicle: saline) and 108 % of control (dose: 100.0 mg/kg/injection, schedule: Q01DX009 (ip), vehicle: saline).

Regarding `CC(C)[Si](C#CC[Si](C(C)C)(C(C)C)C(C)C)(C(C)C)C(C)C`, the T/C runs as follows: under setting [1], 105 % of control; under setting [2], 98 % of control; under setting [3], 100 % of control.

As for `O=C(O)C1Cc2c([nH]c3ccccc23)CN1` (stereo not drawn), the T/C was 100 % of control (dose: 12.5 mg/kg/injection, schedule: Q01DX009 (ip), vehicle: suspension in saline); 109 % of control (dose: 25.0 mg/kg/injection, schedule: Q01DX009 (ip), vehicle: suspension in saline); 105 % of control (dose: 50.0 mg/kg/injection, schedule: Q01DX009 (ip), vehicle: suspension in saline); 106 % of control (dose: 100.0 mg/kg/injection, schedule: Q01DX009 (ip), vehicle: suspension in saline).

As for `COc1ccc(C[n+]2ccc3ccccc3c2)cc1`, the T/C is 95 % of control (dose: 15.0 mg/kg/injection, schedule: Q01DX005 (ip), vehicle: saline); 95 % of control (dose: 30.0 mg/kg/injection, schedule: Q01DX005 (ip), vehicle: saline); 106 % of control and 111 % of control (dose: 60.0 mg/kg/injection, schedule: Q01DX005 (ip), vehicle: saline).

As to `Brc1ccc(-n2c(-c3ccccc3)cs/c2=N\Nc2nnc(-c3ccccc3)c(-c3ccccc3)n2)cc1`, the T/C runs as follows: under setting [8], 101 % of control; under setting [9], 87 % of control; under setting [10], 92 % of control.

Turning to `CCc1nc(-c2ccccc2)nc2c1nc(-c1cccc(C)c1)n2Nc1ccccc1`, the T/C was 97 % of control under setting [5], 94 % of control under setting [6] and 88 % of control under setting [7].

For the compound `CCCCOc1cc2c(cc1C(C)c1ccc(OC)cc1)OCO2` (stereo not drawn), the T/C is, setting by setting: (dose: 50.0 mg/kg/injection, schedule: Q01DX005 (ip), vehicle: distilled water + alcohol) 96 % of control; (dose: 100.0 mg/kg/injection, schedule: Q01DX005 (ip), vehicle: distilled water + alcohol) 95 % of control; (dose: 200.0 mg/kg/injection, schedule: Q01DX005 (ip), vehicle: distilled water + alcohol) 96 % of control.

As to `C=CCP1(C)=NP(OCC(F)(F)F)(OCC(F)(F)F)=NP(OCC(F)(F)F)(OCC(F)(F)F)=N1` (stereo not drawn), the T/C runs as follows: (dose: 50.0 mg/kg/injection, schedule: Q01DX005 (ip), vehicle: Klucel (hydroxypropylcellulose) (HPC)) 99 % of control; (dose: 100.0 mg/kg/injection, schedule: Q01DX005 (ip), vehicle: Klucel (hydroxypropylcellulose) (HPC)) 101 % of control; (dose: 200.0 mg/kg/injection, schedule: Q01DX005 (ip), vehicle: Klucel (hydroxypropylcellulose) (HPC)) 92 % of control.

For `CN(C)c1ccc2[nH]c3ccccc3c2c1`, the T/C by setting is: under setting [1], 107 % of control; under setting [2], 108 % of control; under setting [3], 121 % of control.

Regarding `Nc1cccc(S(=O)(=O)Nc2c(N)[nH]c(=S)[nH]c2=O)c1`, the T/C reads like this: under setting [4], 101 % of control and 94 % of control; under setting [5], 99 % of control and 100 % of control and 97 % of control; under setting [6], 96 % of control and 97 % of control.

With `Cc1noc2nccnc12`, the T/C by setting is: under setting [11], 100 % of control; under setting [12], 91 % of control; under setting [13], 91 % of control.
